Data: ChEMBL document CHEMBL1795238, “Structure-brain exposure relationships in rat and human using a novel data set of unbound drug concentrations in brain interstitial and cerebrospinal fluids” (J Med Chem, 2009)

Experiments:
[1] = Sprague-Dawley, rat, brain, iv, 2 (umol/kg)/hr, 4 h
[2] = clinical; conditions: human, CSF and plasma
Description: Unbound CSF to plasma concentration ratio in human

[3] = in vitro; conditions: Sprague-Dawley, rat, plasma, iv, 2 (umol/kg)/hr
[4] = tested on: Plasma; conditions: rat, iv, 4 h
[5] = in vivo; conditions: Sprague-Dawley, rat, csf, iv, 2 (umol/kg)/hr
[6] = Sprague-Dawley, rat, iv, 2 (umol/kg)/hr, 4 h
[7] = tested on: Brain; conditions: rat, in vivo, iv, 4 h
[8] = in vivo; conditions: Sprague-Dawley, rat, brain and plasma, iv, 2 (umol/kg)/hr
[9] = in vivo; conditions: Sprague-Dawley, rat, brain, iv, 2 (umol/kg)/hr
[10] = tested on: Plasma; conditions: rat, iv, 4 h, BLD = below limit of detection

CO/N=C(\C(=O)N[C@@H]1C(=O)N2C(C(=O)O)=C(COC(C)=O)CS[C@H]12)c1csc(N)n1 [CEFOTAXIME]
BPR [1]: ND(Unstable) | Kp uu [2]: 0.17 | fraction unbound at 4 h [3]: 0.59 | Cp(f) [4]: 2800 nM | Kp uu at 4 h [5]: 0.007 | K(p,uu,brain) [6]: ND(Unstable) | Vdu [7]: ND(Unstable)

CC(=O)O[C@H]1C(=O)[C@@]2(C)[C@H]([C@H](OC(=O)c3ccccc3)[C@]3(O)C[C@H](OC(=O)[C@H](O)[C@@H](NC(=O)c4ccccc4)c4ccccc4)C(C)=C1C3(C)C)[C@]1(OC(C)=O)CO[C@@H]1C[C@@H]2O [PACLITAXEL]
Kp uu at 4 h [8]: 0.007 | fraction unbound at 4 h [3]: 0.05 | Kp at 4 h [9]: 0.28 | Cp(f) [4]: 16 nM | K(p,uu,CSF) [10]: BLD | Vdu [7]: 769 mL
